Like-named read-outs stand apart in the source and are kept apart here.
Columns and labels:
[1] = tested on: cyclic 3', 5'-nucleotide phosphodiesterase; experiment: Enzyme inhibition, cyclic 3', 5'-nucleotide phosphodiesterase; format: biochemical; settings: 3 × 10^-8 M
in situ heart [2] = experiment: Cardiotonic effect in the in situ heart, dog; format: in vivo
Description: (§1) This cardiac stimulation is observed in animals by measuring the in vitro contractile effect on isolated heart muscle and in vivo in anesthetized dogs fitted with a cardiac strain gauge.

blood pressure = experiment: Effect on blood pressure; settings: in vivo
isolated heart [3] = experiment: Cardiotonic effect in the isolated heart, cat; format: cell-based
Description: as §1

isolated heart [4] = experiment: Cardiotonic effect in the isolated heart, rabbit; format: cell-based
Description: as §1

Na, K-ATPase = experiment: Enzyme inhibition, Na, K-ATPase; format: biochemical; settings: 3 × 10^-8 M
isolated vascular muscle = experiment: Mechanical effect on the isolated vascular muscle; format: cell-based
[5] = tested on: isolated guinea pig atria; experiment: Positive inotropic effect on isolated guinea pig atria; format: cell-based
Description: (§2) Anthopleurin-A can be further characterized by its pharmacological characteristics. […] The LD50 in mice (i.p.) is about 0.2-0.3 mg./kg.

atria = experiment: Inotropic effect on atria under stressful conditions; format: cell-based; settings: severe temperature stress, anoxia and low Ca^++ concentrations
isolated heart [6] = experiment: Cardiotonic effect in the isolated heart, dog; format: cell-based
Description: as §1

[7] = tested on: catechol-O-methyltransferase; experiment: Enzyme inhibition, catechol-O-methyltransferase; format: biochemical; settings: 3 × 10^-8 M
Solubility in water = format: physicochemical; settings: deionized water
mice = experiment: Acute toxicity (LD50) in mice, i.p.; format: in vivo
Description: as §2

Isoelectric focusing = format: physicochemical; settings: doubly purified material
Description: For the purpose of obtaining electrophoretic and amino acid analysis the anthopleurin-A obtained in Example 1 was rechromatographed on CM Sephadex C-25, Sephadex G-50 and G-10 according to the process set forth in Example 1, Steps c, d and e, respectively. The doubly purified material was subject to electrophoretic analysis using commercially available pre-cast 12% acrylamide gels and matched buffer systems obtained from Bio.Rad Laboratories, 32nd and Griffin, Richmond, California.
Isoelectric focusing gives the isoelectric point at a pH = 8.2. Disc gel electrophoresis with 12% polyacrylamide gel at pH 3.6 gave an Rf value of 0.46 versus methyl green tracking dye. […] Sodium dodecyl sulfate (SDS) disc gel electrophoresis using a 10% gel indicated a m.w. of about 4,700 after incubation with dithioerythritol, using RNase A and pancreatic trypsin inhibitor (PTI) for comparison. The molecular weight is so low that these values are only approximate. AP-A was determined to be a peptide on the basis of positive ninhydrin spots obtained when a hydrolysate of AP-A was chromatographed.

heart rate = experiment: Chronotropic effect (heart rate)
isolated heart [8] = experiment: Cardiotonic effect in the isolated heart, guinea pig; format: cell-based
Description: as §1

[9] = Dependence of drug action and toxicity on external Ca++ and K+, compared with ouabain
isolated heart [10] = experiment: Cardiotonic effect in the isolated heart, rat; format: cell-based
Description: as §1

in situ heart [11] = experiment: Cardiotonic effect in the in situ heart, cat; format: in vivo
[12] = Stability of anthopleurin-A on storage and in solution; format: physicochemical
monoamine oxidase = experiment: Enzyme inhibition, monoamine oxidase; format: biochemical; settings: 3 × 10^-8 M

With anthopleurin-A the “inhibition of cyclic 3', 5'-nucleotide phosphodiesterase” value [1] was “none of the following enzymes is inhibited”, the “cardiotonic effect in the in situ heart” value (in situ heart [2]) was “effective cardiotonic agent” and the “effect on blood pressure” value (blood pressure) was “negligible effect”. The “effect on blood pressure” value (blood pressure; listed as AP-A) was “does not have any demonstrable effect”, the “cardiotonic effect in the isolated heart” value (isolated heart [3]) was “effective cardiotonic agent” and the “cardiotonic effect in the isolated heart” value (isolated heart [4]) was “effective cardiotonic agent”. For the same substance, the “inhibition of Na, K-ATPase” value (Na, K-ATPase) was “none of the following enzymes is inhibited”, the “mechanical effect on the isolated vascular muscle / vascular smooth muscle” value (isolated vascular muscle) was “no demonostrable mechanical effect” and the “mechanical effect on the isolated vascular muscle / vascular smooth muscle” value (isolated vascular muscle; listed as AP-A) was “does not have any demonstrable effect”. The “ED50, positive inotropic effect” value ([5]; isolated guinea pig atria) was 1.1 nM, the “potency relative to ouabain in positive inotropic effect” value ([5]; times as potent as ouabain) was 200-1000 x and the “inotropic effect on atria under stress” value (atria) was “positive inotropic effect”. The “cardiotonic effect in the isolated heart” value (isolated heart [6]) was “effective cardiotonic agent”, the “inhibition of catechol-O-methyltransferase” value [7] was “none of the following enzymes is inhibited” and the solubility (Solubility in water) was “very soluble”. The LD50 (mice) was 0.2 to 0.3 mg/kg, the isoelectric point (Isoelectric focusing) was 8.2 pH and the “chronotropic effect / effect on heart rate” value (heart rate) was “does not show any chronotropic effect”. The “chronotropic effect / effect on heart rate” value (heart rate; listed as AP-A) was “does not have any demonstrable effect”, the “cardiotonic effect in the isolated heart” value (isolated heart [8]) was “effective cardiotonic agent” and the “effect of lowered external K^+ on drug toxicity” value [9] was “does not alter drug toxicity”. For the same substance, the “sensitivity to Ca^++ concentration” value [9] was “not nearly as sensitive”, the “cardiotonic effect in the isolated heart” value (isolated heart [10]) was “effective cardiotonic agent” and the “cardiotonic effect in the in situ heart” value (in situ heart [11]) was “effective cardiotonic agent”. The “time stable in solution” value ([12]; as fraction G, 20.5° C., 10^-7 M solutions, pH 4.55-7.80) was “at least 24 hours”, the “loss of cardiotonic activity” value ([12]; as fraction G, pH above 11) was “about 90%” and the storage stability ([12]; kept at -20° C. for a year as lyophilized fraction C or lyophilized fraction G) was “no signs of deterioration”. For the same substance, the “stability versus pH” value ([12]; neutral and lower pH values) was “relatively stable” and the “inhibition of monoamine oxidase” value (monoamine oxidase) was “none of the following enzymes is inhibited”.

From US4059694A, “Cardiotonic agent” (The University of Hawaii, priority 1976, dated 1977)
